From US5356916A, “1,2,4-oxadiazole derivatives having monoamine oxidase B enzyme-inhibitory activity” (Wakamoto Pharmaceutical Co., Ltd., priority 1991, dated 1994)
Where two headings read alike, the source gives them in different places.

Tests used:
MAO-A = biological target: T1, MAO-A (Rattus norvegicus, UniProt P21396); assay: In vitro inhibition of monoamine oxidase A (oxygen electrode, rat liver mitochondria, substrate serotonin); assay type: biochemical
T1 construct: mitochondria prepared from the liver of rats; from tissue; host or cells: rat liver mitochondria
T1 sequence (P21396 1-526): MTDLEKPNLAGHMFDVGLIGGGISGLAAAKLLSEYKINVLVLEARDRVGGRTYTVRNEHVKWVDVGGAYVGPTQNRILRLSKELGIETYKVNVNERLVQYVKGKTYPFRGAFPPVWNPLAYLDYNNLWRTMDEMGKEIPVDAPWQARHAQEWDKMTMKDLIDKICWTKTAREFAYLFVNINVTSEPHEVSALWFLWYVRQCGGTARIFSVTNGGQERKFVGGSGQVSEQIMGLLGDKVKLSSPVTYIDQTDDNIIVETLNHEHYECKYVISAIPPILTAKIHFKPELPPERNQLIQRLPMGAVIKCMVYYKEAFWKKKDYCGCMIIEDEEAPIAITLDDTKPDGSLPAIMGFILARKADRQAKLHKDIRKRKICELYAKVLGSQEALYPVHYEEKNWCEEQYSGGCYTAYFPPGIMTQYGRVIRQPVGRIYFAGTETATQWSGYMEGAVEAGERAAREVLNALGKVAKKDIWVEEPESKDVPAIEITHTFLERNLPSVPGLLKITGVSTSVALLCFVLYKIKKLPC
Procedure: (§1) The MAO-inhibitory activity of the compounds of the present invention was determined according to an MAO-inhibitory activity determining method using the oxygen electrode disclosed in K. F. Tipton et al., Biochem. J., 1968,108, pp. 95-99.
(§2) A potassium phosphate buffer solution of mitochondria prepared from the liver of rats was preincubated at 37° C. with or without a compound of the present invention and then a substrate was added to the mixture to thus initiate the reaction at that temperature while the dissolved oxygen-consuming reaction due to MAO activity in the reaction solution was monitored by the oxygen electrode. In this respect, the substrates used were serotonin (5-HT) for the MAO-A activity determination and benzylamine (BA) for the MAO-B activity determination. The MAO-inhibitory activity was evaluated in terms of an IC5.sbsb.0 value which is the concentration of a compound tested required for reducing the rate of oxygen-consuming reaction performed in the presence of the compound to 50% of that of the reaction performed in the absence of the compound.

MAO-B = biological target: T2, MAO-B (Rattus norvegicus, UniProt P19643); assay: In vitro inhibition of monoamine oxidase B (oxygen electrode, rat liver mitochondria, substrate benzylamine); assay type: biochemical; settings: for MAO-A/MAO-B: ratio of IC50 values MAO-A/MAO-B
T2 construct: mitochondria prepared from the liver of rats; from tissue; host or cells: rat liver mitochondria
T2 sequence (P19643 1-520): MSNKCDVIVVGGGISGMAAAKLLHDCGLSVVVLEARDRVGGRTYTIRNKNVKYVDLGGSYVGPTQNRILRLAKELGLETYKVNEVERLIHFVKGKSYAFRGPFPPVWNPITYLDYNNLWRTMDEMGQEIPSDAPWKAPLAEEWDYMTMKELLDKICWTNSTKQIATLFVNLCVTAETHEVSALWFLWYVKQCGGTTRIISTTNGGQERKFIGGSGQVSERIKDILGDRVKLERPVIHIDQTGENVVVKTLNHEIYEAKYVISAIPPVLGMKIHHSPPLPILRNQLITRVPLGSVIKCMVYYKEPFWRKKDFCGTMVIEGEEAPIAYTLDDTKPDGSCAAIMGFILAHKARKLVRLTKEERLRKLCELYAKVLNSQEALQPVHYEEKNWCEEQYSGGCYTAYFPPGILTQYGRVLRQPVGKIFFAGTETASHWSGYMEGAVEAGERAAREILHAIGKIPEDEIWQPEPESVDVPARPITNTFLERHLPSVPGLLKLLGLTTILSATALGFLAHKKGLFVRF
Procedure: as §1, §2

[1] = rat liver mitochondria, 37° C., preincubated, substrate serotonin (5-HT), read-out: IC50 MAO-A
[2] = rat liver mitochondria, 37° C., preincubated, substrate benzylamine (BA), read-out: IC50 MAO-B

SMILES	IC50 (MAO-A; [1]) [µM]	IC50 (MAO-B; [2]) [µM]	MAO-A/MAO-B (MAO-B)	IC50 (MAO-A) [µM]	IC50 (MAO-B) [µM]
Cc1nc(-c2ccc(OCCCn3ccnc3)cc2)no1 [Example 24, 3-[4-[3-(1H-imidazol-1-yl)propoxy]phenyl]-5-methyl-1,2,4-oxadiazole]	550	2.4	230		
CNc1nc(-c2ccc(OCCCn3ccnc3)cc2)no1 [Example 32, 3-[4-[3-(1H-imidazol-1-yl)propoxy]phenyl]-5-methyl-amino-1,2,4-oxadiazole]	110	1.2	92		
CCCc1nc(-c2ccc(OCCCn3ccnc3)cc2)no1 [Example 3, 3-[4-[3-(1H-imidazol-1-yl)propoxy]phenyl]-5-propyl-1,2,4-oxadiazole]	200	1	200		
CCc1nc(-c2ccc(OCCCn3ccnc3C)cc2)no1 [Example 6, 3-[4-[3-(2-methyl-1H-imidazol-1-yl)propoxy]phenyl]-5-ethyl-1,2,4-oxadiazole]	150	150	1		
Cc1nc(-c2ccc(OCc3ccncc3)cc2)no1 [Example 27, 3-[4-(4-pyridylmethyloxy)phenyl]-5-methyl-1,2,4-oxadiazole]	160	25	6.4		
CCc1nc(-c2ccc(OCCCN3CCOCC3)cc2)no1 [Example 11, 3-[4-(3-morpholinopropoxy)phenyl]-5-ethyl-1,2,4-oxadiazole]	200	100	2		
ClC(Cl)(Cl)c1nc(-c2ccc(OCc3ccccc3)cc2)no1 [Example 20, 3-(4-benzyloxy)phenyl-5-trichloromethyl-1,2,4-oxadiazole]			11	100	9.5
FC(F)(F)c1nc(-c2ccc(OCCCn3ccnc3)cc2)no1 [Example 21, 3-[4-[3-(1H-imidazol-1-yl)propoxy]phenyl]-5-trifluoromethyl-1,2,4-oxadiazole]	200	0.03	6700		
Cc1nc(-c2ccc(OCCCc3ccccc3)cc2)no1 [Example 29, 3-[4-(3-phenylpropoxy)phenyl]-5-methyl-1,2,4-oxadiazole]	110	22	5		
ClC(Cl)(Cl)c1nc(-c2ccc(OCCCn3ccnc3)cc2)no1 [Example 2, 3-[4-[3-(1H-imidazol-1-yl)propoxy]phenyl]-5-tri chloromethyl-1,2,4-oxadiazole]	200	0.03	6700		
CCc1nc(-c2ccc(OCCCc3ccccc3)cc2)no1 [Example 15, 3-[4-(3-phenylpropoxy)phenyl]-5-ethyl-1,2,4-oxadiazole]	200	200	1		
FC(F)(F)C(F)(F)C(F)(F)c1nc(-c2ccc(OCCCn3ccnc3)cc2)no1 [Example 23, 3-[4-[3-(1H-imidazol-1-yl)propoxy]phenyl]-5-hepta-fluoropropyl-1,2,4-oxadiazole]			21	100	4.7
Cc1nc(-c2ccc(OCc3cccc(Cl)c3)cc2)no1 [Example 31, 3-[4-(3-chlorobenzyloxy)phenyl]-5-methyl-1,2,4-oxadiazole]	200	3	67		
CCc1nc(-c2ccc(OCCCn3cnc4ccccc43)cc2)no1 [Example 7, 3-[4-[3-(1H-benzimidazol-1-yl)propoxy]phenyl]-5-ethyl-1,2,4-oxadiazole]	150	160	0.9		
CCCN(CCC)CCCOc1ccc(-c2noc(C)n2)cc1 [Example 25, 3-[4-(3-dipropylaminopropoxy)phenyl]-5-methyl-1,2,4-oxadiazole]	100	1	100		
CCc1nc(-c2ccc(OCc3ccccc3)cc2)no1 [Example 19, 3-(4-benzyloxy)phenyl-5-ethyl-1,2,4-oxadiazole]	100	8	13		
CCCN(CCC)CCCOc1ccc(-c2noc(-c3ccccc3)n2)cc1 [Example 9, 3-[4-(3-dipropylaminopropoxy)phenyl]-5-phenyl-1,2,4-oxadiazole]	100	50	2		
CCc1nc(-c2ccc(OCCCc3cccnc3)cc2)no1 [Example 14, 3-[4-[3-(3-pyridyl)propoxy]phenyl]-5-ethyl-1,2,4-oxadiazole]	100	20	5		
FC(F)(F)C(F)(F)c1nc(-c2ccc(OCCCn3ccnc3)cc2)no1 [Example 22, 3-[4-[3-(1H-imidazol-1-yl)propoxy]phenyl]-5-penta-fluoroethyl-1,2,4-oxadiazole]	100	0.09	1100		
CCc1nc(-c2ccc(OCCCn3ccnc3)cc2)no1 [Example 1, 3-[4-[3-(1H-imidazol-1-yl)propoxy]phenyl]-5-ethyl-1,2,4-oxadiazole]	200	0.3	670		

More lines, main results first:

IC50 (MAO-A; [1]) [µM]	IC50 (MAO-B; [2]) [µM]	MAO-A/MAO-B (MAO-B)	SMILES	IC50 (MAO-A) [µM]	IC50 (MAO-B) [µM]
100	7	14	CNc1nc(-c2ccc(OCc3ccccc3)cc2)no1 [Example 33, 3-(4-benzyloxyphenyl)-5-methylamino-1,2,4-oxadiazole]		
18	25	0.7	CCCOc1ccc(-c2noc(C)n2)cc1 [Example 28, 3-(4-propoxy)phenyl-5-methyl-1,2,4-oxadiazole]		
100	100	1	CCc1nc(-c2ccc(OCCCN3C(=O)c4ccccc4C3=O)cc2)no1 [Example 10, 3-[4-(3-phthalimidopropoxy)phenyl]-5-ethyl-1,2,4-oxadiazole]		
100	100	1	O=C1CCCN1CCCOc1ccc(-c2noc(-c3ccccc3)n2)cc1 [Example 17, 3-[4-[3-(2-oxopyrrolidin-1-yl)propoxy]phenyl]-5-phenyl-1,2,4-oxadiazole]		
100	25	4	CCc1nc(-c2ccc(OCCCN(CC)CC)cc2)no1 [Example 8, 3-[4-(3-diethylaminopropoxy)phenyl]-5-ethyl-1,2,4-oxadiazole]		
100	50	2	c1ccc(-c2nc(-c3ccc(OCCCn4ccnc4)cc3)no2)cc1 [Example 5, 3-[4-[3-(1H-imidazol-1-yl)propoxy]phenyl]-5-phenyl-1,2,4-oxadiazole]		
100	2	50	c1cn(CCCOc2ccc(-c3noc(C4CC4)n3)cc2)cn1 [Example 4, 3-[4-[3-(1H-imidazol-1-yl)propoxy]phenyl]-5-cyclo-propyl-1,2,4-oxadiazole]		
100	100	1	CCc1nc(-c2ccc(OCCCN3CCN(C)CC3)cc2)no1 [Example 13, 3-[4-[3-(4-methylpiperazinyl)propoxy]phenyl]-5-ethyl-1,2,4-oxadiazole]		
100	30	3.3	Cc1nc(-c2ccc(OCc3cccnc3)cc2)no1 [Example 26, 3-(4-(3-pyridylmethyloxy)phenyl]-5-methyl-1,2,4-oxadiazole]		
50	4.8	10	Cc1nc(-c2ccc(OCc3ccccc3)cc2)no1 [Example 30, 3=(4-benzyloxy)phenyl-5-methyl-1,2,4-oxadiazole]		
90	60	1.5	CCc1nc(-c2ccc(OCCn3ccnc3)cc2)no1 [Example 18, 3-[4-[2-(1H-imidazol-1-yl)ethoxy]phenyl]-5-ethyl-1,2,4-oxadiazole]		
